According to ChEMBL document CHEMBL3886540, “Orally available viridiofungin derivative possessing anti-HCV activity” (2016):
pIC50: −log10 of the molar value.

What was measured:
Cytochrome P450 3A4 [1] = biological target: T1, Cytochrome P450 3A4 (Homo sapiens, UniProt P08684); test: (§1) CYP Inhibition Assay (Without Preincubation): Without Preincubation: To a 96 deep well plate was added 2.5 uL, of the test substance solution (x200 concentration), 442.5 uL of Incubation Mixture, and 5 uL of the substrate solution, and the solution was mixed and warmed to 37° C. for 5 minutes. To this incubation solution 50 uL of 10 mM NADPH was added to start the reaction, and incubated at 37° C. for 5 minutes. After the incubation, 100 uL of the Incubation Mixture was removed, added to 150 uL of isopropanol containing IS and mixed. […] The filtrate was used for LC-MS/MS analysis.
Cytochrome P450 2C9 [2] = biological target: T2, Cytochrome P450 2C9 (Homo sapiens, UniProt P11712); test: as §1
Cytochrome P450 3A4 [3] = biological target: T1, Cytochrome P450 3A4; test: (§2) CYP Inhibition Assay (With Preincubation): With Preincubation: To a 96 deep well plate was added 2.5 uL of the test substance solution (x200 concentration), and 442.5 uL of Incubation Mixture, and the solution was mixed and warmed to 37° C. for 5 minutes. To this incubation solution 50 uL of 10 mM NADPH was added and preincubated at 37° C. for 30 minutes. […] After the reaction, 100 uL of the Incubation Mixture was removed, added to 150 uL of isopropanol containing IS and mixed. […] The filtrate was used for LC-MS/MS analysis.
Cytochrome P450 2C9 [4] = biological target: T2, Cytochrome P450 2C9; test: as §2

T2 sequence (P11712 whole entry): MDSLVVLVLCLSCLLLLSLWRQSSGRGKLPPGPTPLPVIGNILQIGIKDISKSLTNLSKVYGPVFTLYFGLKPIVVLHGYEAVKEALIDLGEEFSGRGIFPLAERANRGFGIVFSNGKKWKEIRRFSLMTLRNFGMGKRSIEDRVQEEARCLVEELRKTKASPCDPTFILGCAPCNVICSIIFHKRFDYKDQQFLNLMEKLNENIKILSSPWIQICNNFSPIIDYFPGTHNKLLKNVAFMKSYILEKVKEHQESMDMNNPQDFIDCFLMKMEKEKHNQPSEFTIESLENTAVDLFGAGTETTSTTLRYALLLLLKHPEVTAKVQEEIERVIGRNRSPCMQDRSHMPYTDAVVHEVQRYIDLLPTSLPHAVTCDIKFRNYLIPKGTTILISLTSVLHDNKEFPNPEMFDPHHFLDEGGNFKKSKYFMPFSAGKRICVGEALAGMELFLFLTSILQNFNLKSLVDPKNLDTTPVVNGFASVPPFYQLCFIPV
T1 sequence (P08684 whole entry): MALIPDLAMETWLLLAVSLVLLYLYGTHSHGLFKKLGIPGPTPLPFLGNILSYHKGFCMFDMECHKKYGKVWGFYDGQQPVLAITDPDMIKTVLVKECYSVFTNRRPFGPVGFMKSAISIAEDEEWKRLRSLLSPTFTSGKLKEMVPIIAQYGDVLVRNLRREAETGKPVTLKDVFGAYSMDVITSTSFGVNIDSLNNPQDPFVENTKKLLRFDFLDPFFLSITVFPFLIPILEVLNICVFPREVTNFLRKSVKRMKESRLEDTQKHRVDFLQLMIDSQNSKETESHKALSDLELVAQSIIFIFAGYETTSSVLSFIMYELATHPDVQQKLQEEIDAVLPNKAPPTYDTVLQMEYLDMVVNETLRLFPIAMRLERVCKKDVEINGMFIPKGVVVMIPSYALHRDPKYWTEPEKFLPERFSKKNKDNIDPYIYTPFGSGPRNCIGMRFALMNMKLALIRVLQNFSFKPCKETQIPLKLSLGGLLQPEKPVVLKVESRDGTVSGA

Structure (SMILES) | pIC50 (Cytochrome P450 3A4 [1]) | pIC50 (Cytochrome P450 2C9 [2]) | pIC50 (Cytochrome P450 3A4 [3]) | pIC50 (Cytochrome P450 2C9 [4])
CCCCCCCC(F)(F)CCCCCC/C=C/[C@H](C(O)N[C@@H](Cc1ccc(OCCCC)cc1)C(=O)OC)[C@@](O)(CCOC)C(=O)O (stereo partly drawn) | 4.62 | 5.11 | 4.92 | 4.71
CCCCCCCC(F)(F)CCCCCC/C=C/[C@H](C(O)N[C@@H](Cc1ccc(OCCCC)cc1)C(=O)O)[C@@](O)(CCOC)C(=O)O (stereo partly drawn) | 4.79 | 4.90 | 4.93 | 4.61
